# Assays:
# Sigma receptor = Sigma receptor binding study; conditions: test concentration typically 10 μM
# Description: (§1) The tests were typically carried out at a test concentration of 10 μM.
# AMPA receptor = test: Inhibition of the cainate-induced signal at the AMPA receptor, electrophysiology on neuronal cells (Patch-Clamp-Method); type: cell-based; conditions: test concentration of 100 μM
# Description: The tests were carried out at a test concentration of 100 μM.
# [1] = test system: "Na+ channel site 2"-binding site; test: Binding to the Na+ channel site 2 binding site ([3H]-BTX); conditions: test concentration typically 10 μM
# Description: as §1
# Histamine H1 receptor = target: T1, Histamine H1 receptor (Cavia porcellus, UniProt P31389); test: Histamine H1 receptor binding study; conditions: test concentration typically 10 μM; read-out: H1 Inh. [%]
# T1 construct: from tissue
# T1 sequence (P31389 whole entry): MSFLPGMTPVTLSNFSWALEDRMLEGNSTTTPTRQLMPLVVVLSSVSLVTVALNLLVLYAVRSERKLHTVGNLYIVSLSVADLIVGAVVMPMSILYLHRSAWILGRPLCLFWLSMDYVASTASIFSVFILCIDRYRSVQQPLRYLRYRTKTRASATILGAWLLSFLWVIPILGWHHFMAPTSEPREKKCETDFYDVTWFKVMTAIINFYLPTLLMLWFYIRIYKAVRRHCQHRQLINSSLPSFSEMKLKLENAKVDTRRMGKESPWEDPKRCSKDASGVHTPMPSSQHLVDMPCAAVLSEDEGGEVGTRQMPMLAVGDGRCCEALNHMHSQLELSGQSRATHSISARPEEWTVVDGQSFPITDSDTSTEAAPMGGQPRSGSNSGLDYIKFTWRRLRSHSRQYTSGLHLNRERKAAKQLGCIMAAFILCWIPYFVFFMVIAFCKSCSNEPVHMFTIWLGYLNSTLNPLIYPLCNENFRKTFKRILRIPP
# Text: Table 5 summarises the inhibitory values on the above receptors:
Structure (SMILES),Sigma Inh. [%] (Sigma receptor),AMPA Inh. [%] (inhibiting the cainate-induced signal at the AMPA receptor) (AMPA receptor),Na+-channel Inh. [%] ([3H]-BTX) [1],inhibition at 10 µM (Histamine H1 receptor) [%]
"CN(C)CCOc1ccccc1-c1nc(-c2cccs2)no1 [Example 42, 5-{2-[2-(N,N-Dimethylamino)-ethyl]oxy-phenyl}-3-(2-thienyl)-1,2,4-oxadiazole]",57,79,89,94
"c1ccc(-c2noc(-c3ccccc3OCCN3CCCC3)n2)cc1 [Example 13, 5-{2-[2-(N-Pyrrolidinyl)ethyl]oxy-phenyl}-3-phenyl-1,2,4-oxadiazole]",83,96,95,91
"Cc1ccc(-c2nc(-c3ccccc3)no2)c(OCCN(C)C)c1 [Example 67, 5-{2-[2-(N,N-Dimethylamino)-ethyl]oxy4-methyl-phenyl}-3-phenyl-1,2,4-oxadiazole]",54,28,92,90
"CN(C)CCOc1ccccc1-c1nc(-c2ccc(N)cc2)no1 [Example 47, 5-{2-[2-(N,N-Dimethylamino)-ethyl]oxy-phenyl}-3-(4-amino-phenyl)-1,2,4-oxadiazole]",56,59,74,82
"Cc1cccc(-c2noc(-c3ccccc3OCCN(C)C)n2)c1 [Example 37, 5-{2-[2-(N,N-Dimethylamino)-ethyl]oxy-phenyl}-3-(3-methyl-phenyl)-1,2,4-oxadiazole]",82,93,93,93
"CN(C)CCOc1ccccc1-c1nc(-c2ccccc2Cl)no1 [Example 27, 5-{2-[2-(N,N-Dimethylamino)-ethyl]oxy-phenyl}-3-(2-chloro-phenyl)-1,2,4-oxadiazole]",84,91,79,90
"CN(C)CCOc1ccccc1-c1nc(-c2ccccc2Br)no1 [Example 64, 5-{2-[2-(N,N-Dimethylamino)-ethyl]oxy-phenyl}-3-(2-bromo-phenyl)-1,2,4-oxadiazole]",76,65,99,88
"c1ccc(CNCCOc2ccccc2-c2nc(-c3ccccc3)no2)cc1 [Example 20, 5-{2-[2-(N-benzylamino)ethyl]-oxy-phenyl}-3-phenyl-1,2,4-oxadiazole]",84,90,100,19
"CCNCCOc1ccccc1-c1nc(-c2ccccc2)no1 [Example 23, 5-{2-[2-(N-ethylamino)ethyl]-oxy-phenyl}-3-phenyl-1,2,4-oxadiazole]",79,93,99,63
"CN(C)CCOc1ccccc1-c1nc(-c2ccc(Cl)cc2)no1 [Example 18, 5-{2-[2-(N,N-Dimethylamino)-ethyl]oxy-phenyl}-3-(4-chlor-phenyl)-1,2,4-oxadiazole]",80,80,85,94
"CN(C)CCOc1ccccc1-c1nc(-c2cccc(Br)c2)no1 [Example 48, 5-{2-[2-(N,N-Dimethylamino)-ethyl]oxy-phenyl}-3-(3-bromophenyl)-1,2,4-oxadiazole]",74,85,85,78
"c1ccc(-c2noc(-c3ccccc3OCCN3CCCCC3)n2)cc1 [Example 14, 5-{2-[2-(N-Piperidinyl)ethyl]oxy-phenyl}-3-phenyl-1,2,4-oxadiazole]",93,96,100,87
"CN(C)CCOc1ccccc1-c1nc(-c2cccc(C(F)(F)F)c2)no1 [Example 44, 5-{2-[2-(N,N-Dimethylamino)-ethyl]oxy-phenyl}-3-(3-rifluoromethylphenyl)-1,2,4-oxadiazole]",93,62,89,74
"CN(C)CCOc1ccccc1-c1nc(-c2cccc(Cl)c2)no1 [Example 59, 5-{2-[2-(N,N-Dimethylamino)-ethyl]oxy-phenyl}-3-(3-chlorophenyl)-1,2,4-oxadiazole]",82,54,70,84
"CN(C)CCOc1ccccc1-c1nc(Cc2ccccc2)no1 [Example 31, 5-{2-[2-(N,N-Dimethylamino)-ethyl]oxy-phenyl}-3-benzyl-1,2,4-oxadiazole]",77,23,82,94
"CN(C)CCOc1ccccc1-c1noc(-c2ccccc2)n1 [Example 3, 3-{2-[2-(N,N-Dimethylamino)ethyl]oxy-phenyl}-5-phenyl-1,2,4-oxadiazole]",62,96,91,98
"Cc1cccc(-c2nc(-c3ccccc3)no2)c1OCCN(C)C [Example 68, 5-{2-[2-(N,N-Dimethylamino)-ethyl]oxy-3-methyl-phenyl}-3-phenyl-1,2,4-oxadiazole]",79,81,100,74
"CC(C)NCCOc1ccccc1-c1nc(-c2ccccc2)no1 [Example 21, 5-{2-[2-(N-Isopropylamino)ethyl]-oxy-phenyl}-3-phenyl-1,2,4-oxadiazole]",76,98,100,75
"CN1CCN(CCOc2ccccc2-c2nc(-c3ccccc3)no2)CC1 [Example 5, 5-{2-[2-(4-methylpiperazin-1-yl)ethyl]oxy-phenyl}-3-phenyl-1,2,4-oxadiazole]",90,84,78,74
"COc1ccc(-c2noc(-c3ccccc3OCCN(C)C)n2)cc1 [Example 19, 5-{2-[2-(N,N-Dimethylamino)-ethyl]oxy-phenyl}-3-(4-methoxy-phenyl)-1,2,4-oxadiazole]",74,86,83,95
"CNCCOc1ccccc1-c1nc(-c2ccccc2)no1 [Example 22, 5-{2-[2-(N-methylamino)ethyl]-oxy-phenyl}-3-phenyl-1,2,4-oxadiazole]",78,94,94,64
